Laboratory results: patent publication US6740760B2, “D-proline derivatives” (Hoffmann-La Roche Inc., priority 1997, dated 2004)

Columns and labels:
B. fragilis = details: disclosed in WO 97/10225; cited from earlier work

Row | Structure (SMILES) | melting point [°C] | antibacterial activity against B. fragilis (B. fragilis)
1 | O=C(O)[C@H]1CCCN1C(=O)Cc1ccc(CC(=O)N2CCC[C@@H]2C(=O)O)cc1 | 210 to 214 | 
2 | C[C@@H](CS)C(=O)N1CCC[C@@H]1C(=O)O [1-[(R)3-Mercapto-2-methyl-propionyl]-(R)-pyrrolidine-2-carboxylic acid] |  | antibacterial activity
3 | C[C@H](CS)C(=O)N1CCC[C@@H]1C(=O)O [1-[(S)3-Mercapto-2-methyl-propionyl]-(R)-pyrrolidine-2-carboxylic acid] |  | antibacterial activity
